Data: the NIST ThermoML archive (doi:10.1021/je050173+)

Legend:
[1] = molar heat capacity at constant pressure; conditions: 101.33 kPa, Liquid
[2] = for mass density / viscosity / thermal conductivity: 101.33 kPa; for mass density / viscosity / thermal conductivity / vapor or sublimation pressure: Liquid; for thermal conductivity: Hot wire method; for surface tension liquid-gas: Maximal bubble pressure

C[Si]1(C)O[Si](C)(C)O[Si](C)(C)O1 [hexamethylcyclotrisiloxane]
Conditions	mass density [kg/m3]	molar heat capacity at constant pressure [J/K/mol]	surface tension liquid-gas [mN/m]	thermal conductivity [W/m/K]	vapor or sublimation pressure [kPa]	viscosity [mPa·s]
[1], 339.9 K	–	404.5	–	–	–	–
[1], 343.15 K	–	405.9	–	–	–	–
[1], 345.03 K	–	406.7	–	–	–	–
[1], 353.15 K	–	410.4	–	–	–	–
[1], 357.92 K	–	412.3	–	–	–	–
[1], 361.2 K	–	413.8	–	–	–	–
[1], 365.09 K	–	415.6	–	–	–	–
[1], 370.16 K	–	418.1	–	–	–	–
[1], 374.79 K	–	420.1	–	–	–	–
[1], 379.42 K	–	421.8	–	–	–	–
[1], 383.15 K	–	423.6	–	–	–	–
[1], 388.06 K	–	425.6	–	–	–	–
[1], 393.14 K	–	428.1	–	–	–	–
[1], 398.01 K	–	430	–	–	–	–
[1], 400 K	–	431	–	–	–	–
[1], 404.89 K	–	433.2	–	–	–	–
[2], 343.15 K	872.69	–	–	0.1026	–	0.48
[2], 344.55 K	–	–	13.54	–	–	–
[2], 347.35 K	–	–	13.32	–	–	–
[2], 347.64 K	–	–	–	–	13.85	–
[2], 348.15 K	–	–	–	–	–	0.46
[2], 348.7 K	865.41	–	–	–	–	–
[2], 350.13 K	–	–	–	–	15.28	–
[2], 351.45 K	–	–	–	–	16.19	–
[2], 353.15 K	–	–	–	–	–	0.44
[2], 353.95 K	–	–	12.9	–	–	–
[2], 354.65 K	856.98	–	–	–	–	–
[2], 355.59 K	–	–	–	–	19.01	–
[2], 357.4 K	854.11	–	–	–	–	–
[2], 358.15 K	–	–	–	–	–	0.42
[2], 358.45 K	–	–	12.68	–	–	–
[2], 359.15 K	852.6	–	–	–	–	–
[2], 360.17 K	–	–	–	–	22.55	–
[2], 361.61 K	–	–	–	–	23.75	–
[2], 362.4 K	–	–	–	–	24.47	–
[2], 363.15 K	–	–	12.33	–	–	0.4
[2], 365.71 K	–	–	–	–	27.62	–
[2], 366.1 K	842.76	–	–	–	–	–
[2], 368.15 K	–	–	12.02	–	–	0.39
[2], 368.81 K	–	–	–	–	30.71	–
[2], 369.65 K	838	–	–	–	–	–
[2], 372.34 K	–	–	–	–	34.63	–
[2], 372.68 K	–	–	–	–	35.01	–
[2], 373.15 K	833.47	–	11.71	–	–	0.37
[2], 378.15 K	–	–	11.4	–	–	0.35
[2], 379.16 K	825.64	–	–	–	–	–
[2], 381.37 K	–	–	–	–	46.63	–
[2], 383.15 K	820.39	–	11.09	–	–	0.34
[2], 383.78 K	–	–	–	–	50.31	–
[2], 387.85 K	814.16	–	–	–	–	–
[2], 387.95 K	–	–	–	–	57.22	–
[2], 388.15 K	–	–	–	–	–	0.33
[2], 393.15 K	–	–	–	–	–	0.32
[2], 397.75 K	–	–	–	–	76.52	–
[2], 407.63 K	–	–	–	–	100.85	–

C[Si]1(C)O[Si](C)(C)O[Si](C)(C)O[Si](C)(C)O1 [octamethylcyclotetrasiloxane]
Conditions	mass density [kg/m3]	molar heat capacity at constant pressure [J/K/mol]	surface tension liquid-gas [mN/m]	thermal conductivity [W/m/K]	vapor or sublimation pressure [kPa]	viscosity [mPa·s]
[1], 293.15 K	–	511.5	–	–	–	–
[1], 298 K	–	513.6	–	–	–	–
[1], 303.15 K	–	515.8	–	–	–	–
[1], 306.25 K	–	517.2	–	–	–	–
[1], 313.12 K	–	520.1	–	–	–	–
[1], 319 K	–	522.7	–	–	–	–
[1], 323.25 K	–	524.5	–	–	–	–
[1], 327.55 K	–	526.4	–	–	–	–
[1], 334.75 K	–	529.1	–	–	–	–
[1], 337.88 K	–	530.8	–	–	–	–
[1], 342.23 K	–	532.7	–	–	–	–
[1], 348.05 K	–	535.2	–	–	–	–
[1], 352.2 K	–	538.8	–	–	–	–
[1], 358.83 K	–	539.9	–	–	–	–
[1], 364.28 K	–	542.2	–	–	–	–
[1], 370.25 K	–	543	–	–	–	–
[1], 377.55 K	–	548	–	–	–	–
[1], 382.48 K	–	550.1	–	–	–	–
[1], 388.65 K	–	552.3	–	–	–	–
[1], 393.15 K	–	554.7	–	–	–	–
[1], 399.83 K	–	557.7	–	–	–	–
[1], 407.15 K	–	560.8	–	–	–	–
[1], 415.73 K	–	564.5	–	–	–	–
[1], 425.95 K	–	568.4	–	–	–	–
[2], 292 K	957.55	–	–	–	–	–
[2], 293.15 K	–	–	17.93	–	–	2.45
[2], 298.15 K	–	–	–	0.1131	–	–
[2], 301.6 K	946.16	–	–	–	–	–
[2], 303.15 K	944.21	–	17.28	–	–	2.06
[2], 311.2 K	934.8	–	–	–	–	–
[2], 311.8 K	–	–	–	–	0.355	–
[2], 313.15 K	932.43	–	16.6	–	–	1.7
[2], 316 K	929.12	–	–	–	–	–
[2], 317.63 K	–	–	–	–	0.535	–
[2], 318.25 K	–	–	–	–	0.548	–
[2], 323.15 K	–	–	15.95	–	–	1.44
[2], 325.62 K	917.74	–	–	–	–	–
[2], 328.59 K	–	–	–	–	0.988	–
[2], 328.78 K	–	–	–	–	0.996	–
[2], 330.47 K	912.06	–	–	–	–	–
[2], 332.94 K	–	–	–	–	1.295	–
[2], 333.15 K	909.32	–	15.16	–	–	1.23
[2], 336.67 K	–	–	–	–	1.642	–
[2], 339.58 K	–	–	–	–	1.926	–
[2], 340.05 K	900.68	–	–	–	–	–
[2], 343.15 K	–	–	14.5	0.1038	–	1.06
[2], 343.99 K	–	–	–	–	2.426	–
[2], 344.8 K	894.99	–	–	–	–	–
[2], 349.65 K	889.31	–	–	–	–	–
[2], 349.86 K	–	–	–	–	3.277	–
[2], 353.15 K	884.79	–	13.77	–	–	0.92
[2], 360.26 K	–	–	–	–	5.47	–
[2], 363.15 K	–	–	13.05	–	–	0.81
[2], 364.04 K	872.24	–	–	–	–	–
[2], 373.15 K	861.35	–	12.38	–	–	0.71
[2], 376.51 K	–	–	–	–	10.96	–
[2], 379.31 K	–	–	–	–	12.23	–
[2], 381.23 K	–	–	–	–	13.17	–
[2], 383.15 K	–	–	–	–	–	0.63
[2], 383.17 K	–	–	–	–	14.24	–
[2], 383.2 K	849.47	–	–	–	–	–
[2], 383.58 K	–	–	–	–	14.44	–
[2], 388.92 K	–	–	–	–	17.67	–
[2], 389.73 K	–	–	–	–	18.2	–
[2], 390.88 K	–	–	–	–	18.9	–
[2], 393.15 K	837.64	–	10.98	–	–	0.56
[2], 396.28 K	–	–	–	–	22.95	–
[2], 397.6 K	832.37	–	–	–	–	–
[2], 403.15 K	–	–	–	–	–	0.51
[2], 407.22 K	821	–	–	–	–	–
[2], 407.56 K	–	–	–	–	33.46	–
[2], 413.15 K	813.94	–	9.58	–	–	–
[2], 413.82 K	–	–	–	–	40.8	–
[2], 421.58 K	803.91	–	–	–	–	–
[2], 423.15 K	–	–	–	–	–	0.41
[2], 423.24 K	–	–	–	–	54.11	–
[2], 433.15 K	790.24	–	8.18	–	–	–
[2], 446.26 K	–	–	–	–	100.82	–
